Data: US20260174674A1, “INCOMPLETE AUTOPHAGY INDUCTION FOR THE TREATMENT OF CANCER” (Northwestern University, priority 2022, published 2026)

Tests used:
α-synuclein = details: cited from earlier work
brain metastases = details: added to whole-brain radiation, cited from earlier work
[1] = cited from earlier work
[2] = test system: HCC1954 mammary fat pad tumors; assay: Mammary fat pad tumor model; format: in vivo, nude mice
Method: (§1) All animal studies were completed per the National Institutes of Health guidelines on the care and use of laboratory animals for research purposes. The Institutional Committee on Animal Use at Northwestern University approved the protocols. Six- to eight-week-old athymic, immunodeficient (nu/nu) female mice were obtained from Charles River and maintained in a specific pathogen-free facility. For mammary gland injections, 1×10^6 HCC1954 cells were injected in the inguinal mammary fat pad of nude female mice. For the stereotactic intracranial injection, mice were placed in a stereotactic frame, and 5×10^5 BT-474Br cells were intracranially injected at a depth of 3 mm. For intracarotid artery injections, 1×10^6 MDA-MB-231Br cells were injected using a 31-gauge BD insulin syringe into the lumen of internal carotid artery.
The efficacy of metixene hydrochloride was evaluated using an in vivo model. HCC1954 cells were injected into the mammary fat pads of nude mice. After the formation and establishment of 5 mm breast tumors, mice were randomly divided into three groups whereby treatment was administered intraperitoneally: control (25% captisol); metixene (0.1 mg/kg); and metixene (1.0 mg/kg). The dosages were given three times a week. After 6 weeks, fat pad tumors were collected and analyzed (FIG. 2A).

HCC1954 = assay: CNS drug screen, cell viability, trastuzumab-resistant line; format: cell-based; details: 25 μM
Method: (§2) The Prestwick CNS Drug Library of 320 CNS compounds was purchased from Prestwick Chemical Libraries for screening. Cells were seeded at a density of 5000 cells/well in clear, flatbottomed, black-walled, 96-well plates. Each compound from the library was added at a final concentration of 25 μM per well 1 day after seeding of cells. After three days of treatment, cell viability was measured using CellTiter-Glo® Luminescent Cell Viability Assay (Promega) according to the manufacturer's instructions.
HER2-positive breast cancer has the greatest risk for intracranial-specific metastases. When metastatic cancer cells colonize the brain, they develop resistance to systemic therapies, such as trastuzumab. For this reason, another blinded screen was conducted on a metastatic breast cancer cell line that is trastuzumab-resistant, HCC1954. At 25 μM, the screen yielded five hits that caused a nearly complete loss of cell viability. […] Next, the effect of metixene on different metastatic breast cancer cell lines was determined by measuring its IC50 in two HER2-positive cell lines (BT474 and HCC1954) and five triple-negative breast cancer cell lines (MDAMB-231-Br, HCC1806, HS578T, HCC3153, and SUM159) after 72 hours of treatment.

[3] = test system: NDRG1 KO MDA-MB-231Br cells; assay: NDRG1 CRISPR Cas9 knockout versus vector control; format: cell-based
Method: (§3) Upon further analysis of the RPPA data, the phosphorylation of N-Myc Downstream Regulated 1 (NDRG1) was noted to be relevant in four major pathways related to autophagy after 24 hours of metixene treatment. […] To confirm the role of NDRG1 in autophagy, NDRG1 knockout (KO) cells were generated using CRISPR Cas9 in MDA-MB-231Br cells. The cells were then treated with metixene in a dose-dependent manner and compared to cells transfected with a vector control.
(§4) The inventors then checked whether NDRG1 is further involved in the apoptotic cell death induced by metixene. A cell viability assay was conducted to check the effect of NDRG1 KO versus vector control upon metixene dose-dependent treatment. […] Upon NDRG1 KO, autophagy is completed, and the caspase-mediated pathway of apoptosis is not activated. This mechanism applies to primary brain cancers, such as glioblastoma (FIG. 4A), and other metastatic cancers to the brain, such as lung cancer (FIG. 4B) and melanoma (FIG. 4C).

[4] = test system: cleaved caspase-3 in BT-474Br; assay: Cleaved caspase-3 protein expression; format: cell-based; details: 24 hours
Text: (§5) Next, whether metixene induces apoptotic cell death was investigated. […] Immunofluorescence analysis of metixene-treated BT-474Br and MDA-MB-231Br cells confirmed increased cleaved caspase-3 expression.

[5] = test system: cleaved caspase-3 in MDA-MB-231Br; assay: Cleaved caspase-3 protein expression; format: cell-based; details: 24 hours
Text: as §5

[6] = test system: caspase 3/7 activity in MDA-MB-231Br; assay: Caspase 3/7 assay; format: cell-based
[7] = test system: caspase 3/7 activity in BT-474Br; assay: Caspase 3/7 assay; format: cell-based
[8] = test system: LC3 in MDA-MB-231-Br cells; assay: LC3 conversion and autophagy flux; format: cell-based; details: 10 μM, time course
Method: Next, MDA-MB-231-Br cells were treated with metixene for different durations to determine the mechanism of autophagic signaling in brain metastatic cells. […] Afterward, autophagy flux changes after ten minutes, one hour, and three hours of treatment were tested. LC3 II levels in control (untreated) cells, cells treated with chloroquine (25 μM), cells treated with metixene (10 μM), and cells treated with metixene and chloroquine were compared.

CT2A glioma cells = assay: Cell killing in glioma cells; format: cell-based; details: increasing amount of metixene
Method: (§6) FIGS. 4A-4C. Metixene induces cell death in primary brain tumors and other metastatic cancers. (FIG. 4A) CT2A glioma cells were treated with increasing amount of metixene. […] (FIG. 4B) H2030Br lung cancer brain metastatic cells were treated with increasing amount of metixene. […] (FIG. 4C) WM3734 melanoma brain metastatic cells were treated with increasing amount of metixene.
as §4

BT-474Br = assay: Cell viability assay; format: cell-based
Method: (§7) Following the determination of an appropriate range for treatment of BCBM cells, the anti-cancer activity of metixene was evaluated in the brain metastatic HER2-positive BT-474Br and the triple-negative MDA-MB-231Br cell lines, using increasing concentrations of the drug at different time points.

MDA-MB-231Br = assay: Cell viability assay; format: cell-based
Method: as §7

[9] = test system: BT-474Br intracranial tumors; assay: Stereotactic intracranial model of BCBM; format: in vivo, nude mice
Method: as §1
After showing its anti-tumor effect in vivo, whether metixene could improve survival in different preclinical models of brain metastases was tested. A stereotactic intracranial injection of HER2-positive BT474-Br cells was performed in nude mice. After 10 days of recovery and tumor growth, the mice were divided into two groups that were treated intraperitoneally: control (25% captisol, n=7); and metixene (1.0 mg/kg, n=8). The dosages were given three times per week.

[10] = test system: MDA-MB-231-Br brain metastases; assay: Intracarotid model of multiple brain metastases; format: in vivo, nude mice; details: 1.0 mg/kg intraperitoneally three times per week, p=0.037
Method: as §1
The model was established through a systemic intracarotid injection of triple-negative MDA-MB-231-Br cells in nude mice. Ten days after injection of tumor cells, mice were randomly divided into two groups and treated intraperitoneally with: control (25% captisol, n=5) and metixene (1.0 mg/kg, n=6). The treatments were given three times per week.

LC3 in BT-474Br cells = assay: LC3 puncta immunofluorescence; format: cell-based; details: 10 μM; P=0.015
Method: (§8) The efficacy of metixene in inducing autophagy was tested in two primary breast and brain metastatic cancer cell lines, using BT-474 and BT-474Br and MDA-MB-231 and MDA-MB-231Br, respectively.

[11] = test system: BT-474 and BT-474Br and MDA-MB-231 and MDA-MB-231Br; assay: Autophagy induction with increasing concentration (LC3, SQSTM1/p62); format: cell-based
Method: as §8

NDRG1 in MDA-MB-231Br = assay: NDRG1 and pNDRG1 expression; format: cell-based; details: dose-dependent treatment
Method: as §3

[12] = test system: BT-474Br, a HER2-positive BCBM cell line; assay: CNS drug screen, CellTiter-Glo cell viability; format: cell-based; details: 25 μM, 72 hours, Cell Titer Glo
Method: as §2
A blinded screen was conducted on a drug library comprising 320 structurally diverse drugs that are FDA approved, blood brain barrier (BBB) permeable, and known for their pharmacological effects on the CNS to identify potential hits for therapeutic intervention against brain metastases. Using BT-474Br, a HER2-positive BCBM cell line, the efficacy of the 320 compounds were screened at a standard concentration of 25 μM. After 72 hours of treatment, a cell viability assay was performed using Cell Titer Glo to determine the number of viable, metabolically active cells in culture. The screen yielded five different therapeutic agents that caused a vast reduction (>95%) in cell viability in vitro.

[13] = test system: WM3734 melanoma brain metastatic cells; assay: Cell killing in melanoma brain metastatic cells; format: cell-based; details: increasing amount of metixene
Method: as §6, §4

[14] = test system: H2030Br lung cancer brain metastatic cells; assay: Cell killing in lung cancer brain metastatic cells; format: cell-based; details: increasing amount of metixene
Method: as §6, §4

[15] = dose-dependent treatment, Western blot

SMILES: C=CCNC1=C2C[C@@H](C)C[C@H](OC)[C@H](O)[C@@H](C)/C=C(\C)[C@H](OC(N)=O)[C@@H](OC)/C=C\C=C(/C)C(=O)NC(=CC1=O)C2=O [17-AAG]
- reduction of α-synuclein in cells (α-synuclein): effective in reducing α-synuclein in cells

SMILES: CCN(CC)CCCC(C)Nc1ccnc2cc(Cl)ccc12 (stereo not drawn) [chloroquine]
- toxicity (brain metastases; vs controls): no increase in toxicity
- overall survival (brain metastases; controls 7.42 months, P=0.839): 10.2 months
- BBB permeability [1]: low permeability of the BBB

SMILES: CN1CCCC(CC2c3ccccc3Sc3ccccc32)C1 (stereo not drawn) [metixene]
- tumor weight ([2]; 0.1 mg/kg intraperitoneally three times a week, 6 weeks, P=0.0043): decreased significantly
- percent of cleaved caspase-3-positive cells in tumor sections ([2]; 0.1 mg/kg, p=0.001): significant increase
- tumor weight ([2]; 1.0 mg/kg intraperitoneally three times a week, 6 weeks, P=0.0004): decreased significantly
- percent of cleaved caspase-3-positive cells in tumor sections ([2]; 1.0 mg/kg, p=0.0002): significant increase
- tumor volume ([2]; 0.1 and 1.0 mg/kg intraperitoneally three times a week, 6 weeks, p<0.0001): decreased significantly
- loss of cell viability (HCC1954): top hit in both screens
- apoptosis (caspase 3/7) in NDRG1 KO cells vs control ([3]; 10 μM (P=0.0078) and 15 μM (P<0.0001)): significantly reduced
- viability of NDRG1 KO cells vs control cells ([3]; 10 μM (P=0.0271) and 20 μM (P<0.0001)): significantly more viable
- LC3II levels in NDRG1 KO cells vs vector control [3, 15]: decreased significantly
- p62 levels in NDRG1 KO cells vs vector control [3, 15]: significant decrease
- cleaved caspase-3 protein levels [4]: markedly increase
- cleaved caspase-3 protein levels [5]: markedly increase
- caspase 3/7 activity ([6]; 24 hours, 10 μM and 15 μM): significant increase in caspase 3/7 activity
- caspase 3/7 activity ([6]; 48 hours, 15 μM): increased significantly
- caspase 3/7 activity ([7]; 24 hours): significant increase in caspase 3/7 activity
- caspase 3/7 activity ([7]; 48 hours, 15 μM): increased significantly
- conversion of LC3 I to LC3 II [8]: increase as early as ten minutes
- concentration at which potent cell-killing effect begins (CT2A glioma cells): 5 µM
- cell viability (BT-474Br; 24 hours): significant reduction in cell viability
- cell viability (BT-474Br; 48 hours, 15 μM): significantly decreased
- cell viability (MDA-MB-231Br; 24 hours): significant reduction in cell viability
- cell viability (MDA-MB-231Br; 48 hours, 5, 10, and 15 μM): significantly decreased
- median survival ([9]; 1.0 mg/kg intraperitoneally three times per week, control 52 days, p=0.0008): 64 days
- luciferase signal in the brain ([9]; 1.0 mg/kg, after six weeks of treatment, vs controls, p=0.02): significant reduction
- median survival ([10]; control 44 days): 67 days
- increase in survival in comparison to controls [10]: 52%
- LC3 puncta accumulation (LC3 in BT-474Br cells): significant increase in the accumulation of puncta
- LC3 II levels ([11]; increasing concentration): increased as the concentration of metixene increased
- ratio of LC3 II to I levels ([11]; increasing concentration): trended upwards with increasing concentration
- SQSTM1/p62 levels ([11]; increasing concentration (FIG. 3F)): increased with increasing concentration
- expression of NDRG1 and pNDRG1 (NDRG1 in MDA-MB-231Br): increased significantly in a dose-dependent manner
- reduction in cell viability [12]: top hit in both screens
- BBB permeability [1]: BBB permeable
- concentration at which potent cell-killing effect begins [13]: 10 µM
- concentration at which potent cell-killing effect begins [14]: 10 µM
